The inhibition is how much of the control response was suppressed.

Counter-ions that a name gives are not always drawn. Where only a bound is given, the exact number is not on record here.

These results are taken from US6221865A, “Inhibitors of protein isoprenyl transferases” (priority 1998, dated 2001).

For the first experiment, the target named is T1, protein farnesyltransferase (Rattus norvegicus, UniProt Q02293+Q04631).
T1 construct: The enzyme is purified according to Reiss, Y., et al., Cell, 62: 81-88 (1990), utilizing steps one through three; from tissue; host or cells: rat brain
T1 sequence (Q02293 whole entry, one chain of several): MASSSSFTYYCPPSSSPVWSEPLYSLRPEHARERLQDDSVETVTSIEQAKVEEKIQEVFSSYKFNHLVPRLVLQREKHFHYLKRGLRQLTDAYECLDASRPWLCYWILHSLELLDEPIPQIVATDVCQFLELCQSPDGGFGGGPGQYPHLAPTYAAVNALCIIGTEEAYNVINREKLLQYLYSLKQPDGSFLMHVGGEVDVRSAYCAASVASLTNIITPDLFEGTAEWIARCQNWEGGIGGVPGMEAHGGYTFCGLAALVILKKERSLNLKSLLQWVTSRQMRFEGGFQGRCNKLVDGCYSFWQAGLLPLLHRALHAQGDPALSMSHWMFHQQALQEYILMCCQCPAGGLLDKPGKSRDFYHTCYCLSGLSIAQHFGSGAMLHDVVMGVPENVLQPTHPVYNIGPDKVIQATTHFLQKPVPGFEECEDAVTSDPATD
As to the kind of experiment: Inhibition of farnesyltransferase (scintillation proximity assay, rat brain enzyme, biotin-K Ras B fragment substrate). The experiment is classed as biochemical. As to conditions: 1 × 10^-5 M (Table 1). The gist of the method: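 Enzyme from rat brain, partly purified (steps one to three), assayed by SPA kit using 0.1 mM final biotin-K Ras B peptide as prenyl acceptor rather than biotin-lamin. Activity given as percent inhibition.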
(In general: SPA uses beads or plates that emit light when radiolabelled molecules are held near them.)
In the case of `CSCC[C@H](NC(=O)c1ccc(CNc2cc(C(=O)O)cc(C(=O)O)c2)cc1-c1ccccc1)C(=O)O` [Example 710], the “% inhibition of farnesyltransferase at 1 × 10^-5 M” value (from here on “% inhibition … at 1 × 10^-5 M”) is recorded as 45%.

With `CSCC[C@H](NC(=O)c1ccc(CNCC(C)(C)CN(C)C)cc1-c1ccccc1)C(=O)O` [Example 639], the “% inhibition … at 1 × 10^-5 M” value was determined as 44%.

For the molecule `CSCC[C@H](NC(=O)c1ccc(CNc2ccc3c(c2)CCC3)cc1-c1ccccc1)C(=O)O` [Example 705], the “% inhibition … at 1 × 10^-5 M” value is reported as 72%.

As to `CSCC[C@H](NC(=O)c1ccc(CNCCN2CCOCC2)cc1-c1ccccc1)C(=O)O` [Example 365], the “% inhibition … at 1 × 10^-5 M” value stood at 97%.

Turning to `CSCC[C@H](NC(=O)c1ccc(CNc2cccc(CO)c2)cc1-c1ccccc1)C(=O)O` [Example 680], the “% inhibition … at 1 × 10^-5 M” value turned out to be 58%.

Consider `CSCC[C@H](NC(=O)c1ccc(CNc2cccc(C)c2)cc1-c1ccccc1)C(=O)O` [Example 674], for which the “% inhibition … at 1 × 10^-5 M” value is given as 40%.

As for `CSCC[C@H](NC(=O)c1ccc(CNc2ccc(-c3ccccc3)cc2)cc1-c1ccccc1)C(=O)O` [Example 700], the “% inhibition … at 1 × 10^-5 M” value worked out at 68%.

The experiment is the same for the next values; noted with them: 1 × 10^-6 M (Table 2).
Regarding `CSCC[C@H](NC(=O)c1ccc(CN(C(=O)OC(C)(C)C)C(CC2CCCCC2)CC2CCCCC2)cc1-c1ccccc1C)C(=O)O` [Example 886], the “% inhibition of farnesyltransferase at 1 × 10^-6 M” value (“% inhibition … at 1 × 10^-6 M” below) stood at 35%.

For the molecule `CSCC[C@H](NC(=O)c1ccc(CNc2ccc(S(=O)(=O)Nc3onc(C)c3C)cc2)cc1-c1ccccc1C)C(=O)O` [Example 726], the “% inhibition … at 1 × 10^-6 M” value is recorded as 81%.

For `COc1ccc(CNCc2ccc(C(=O)N[C@@H](CCSC)C(=O)O)c(-c3ccccc3)c2)c(OC)c1` [Example 655], the “% inhibition … at 1 × 10^-6 M” value stood at 35%.

`CSCC[C@H](NC(=O)c1ccc(CNCCSC(C)(C)C)cc1-c1ccccc1)C(=O)O` [Example 627]: the “% inhibition … at 1 × 10^-6 M” value came out at 85%.

Turning to `CSCC[C@H](NC(=O)c1ccc(CNc2ccc(N3CCCCC3)cc2)cc1-c1ccccc1C)C(=O)O` [Example 862], the “% inhibition … at 1 × 10^-6 M” value is listed as 95%.

As to `CSCC[C@H](NC(=O)c1ccc(OCCCCOc2ccccc2)cc1-c1ccccc1C)C(=O)O` [Example 568], the “% inhibition … at 1 × 10^-6 M” value is reported as 93%.

`CSCCC(CO)NCc1ccc(C(=O)N[C@@H](CCSC)C(=O)O)c(-c2ccccc2)c1` (stereo partly shown) [Example 633]: the “% inhibition … at 1 × 10^-6 M” value stood at 32%.

Regarding `CSCC[C@H](NC(=O)c1ccc(CNCCC2CCCCC2)cc1-c1ccccc1C)C(=O)O.O=C(O)C(F)(F)F` [Example 607], the “% inhibition … at 1 × 10^-6 M” value is given as 96%.

As for `CSCC[C@H](NC(=O)c1ccc(COCc2ccccc2)cc1-c1ccccc1C)C(=O)NS(=O)(=O)c1ccc(C)cc1` [Example 582], the “% inhibition … at 1 × 10^-6 M” value is 99%.

As to `CCOC(=O)c1ccc(NCc2ccc(C(=O)N[C@@H](CCSC)C(=O)O)c(-c3ccccc3)c2)cc1` [Example 646], the “% inhibition … at 1 × 10^-6 M” value came out at 58%.

For the molecule `CSCC[C@H](NC(=O)c1cc(Cc2ccccc2)c(COCc2ccccc2)cc1-c1ccccc1C)C(=O)O` [Example 923], the “% inhibition … at 1 × 10^-6 M” value was found to be 78%.

Staying with this experiment, now noted: 1 × 10^-7 M (Table 3).
On to `CSCC[C@H](NC(=O)c1ccc(CSc2ncnc3[nH]cnc23)cc1-c1ccccc1C)C(=O)O` [Example 747], for which the “% inhibition of farnesyltransferase at 1 × 10^-7 M” value (shortened to “% inhibition … at 1 × 10^-7 M”) worked out at 68%.

Take `COc1cccc(-c2ccc(COCc3ccc(C(=O)N[C@@H](CCSC)C(=O)[O-])c(-c4ccccc4C)c3)o2)c1.[Li+]` [Example 442]: the “% inhibition … at 1 × 10^-7 M” value is reported as 88%.

As for `CSCC[C@H](NC(=O)c1ccc(COCC2CCC(c3ccc(Cl)cc3)O2)cc1-c1ccccc1C)C(=O)O` (stereo partly shown) [Example 822], the “% inhibition … at 1 × 10^-7 M” value turned out to be 93%.

With `CSCC[C@H](NC(=O)c1ccc(COCCC2CCCCC2)cc1-c1ccccc1C)C(=O)[O-].[Li+]` [Example 594], the “% inhibition … at 1 × 10^-7 M” value is 95%.

For the molecule `CSCC[C@H](NC(=O)c1ccc(CNC(CC2CCCCC2)C2CCCCC2)cc1-c1ccccc1C)C(=O)[O-].[Li+]` (stereo partly shown) [Example 616], the “% inhibition … at 1 × 10^-7 M” value worked out at 95%.

Turning to `CSCC[C@H](NC(=O)c1ccc(COCCc2ccc3ccccc3c2)cc1-c1ccccc1C)C(=O)[O-].[Li+]` [Example 593], the “% inhibition … at 1 × 10^-7 M” value is 86%.

Regarding `CSCC[C@H](NC(=O)c1ccc(CN(CCC2CCCCC2)C(C)=O)cc1-c1ccccc1C)C(=O)[O-].[Li+]` [Example 609], the “% inhibition … at 1 × 10^-7 M” value is listed as 95%.

Staying with this experiment, now noted: 1 × 10^-8 M (Table 4).
Consider `CSCC[C@H](NC(=O)c1ccc(CN(Cc2ccccc2)c2cncnc2)cc1-c1ccccc1C)C(=O)O` [Example 836], for which the “% inhibition of farnesyltransferase at 1 × 10^-8 M” value (“% inhibition … at 1 × 10^-8 M” for short) is reported as 95%.

In the case of `CSCC[C@H](NC(=O)c1ccc(NC[C@H]2NCC[C@H]2S)cc1-c1ccccc1)C(=O)O` [Example 960], the “% inhibition … at 1 × 10^-8 M” value is over 50%.

As for `CCSC[C@H](CC(C)C)NCc1ccc(C(=O)N[C@@H](CCSC)C(=O)O)c(-c2ccccc2C)c1` [Example 905], the “% inhibition … at 1 × 10^-8 M” value came to 86%.

For the molecule `CSCC[C@H](NC(=O)c1ccc(CN(Cc2ccccc2)c2ccc(SC)cc2)cc1-c1ccccc1C)C(=O)[O-].[Li+]` [Example 852], the “% inhibition … at 1 × 10^-8 M” value is given as 79%.

As for `CSCC[C@H](NC(=O)c1ccc(CN(CCC2CCCCC2)Cc2ccccc2)cc1-c1ccccc1C)C(=O)[O-].[Li+]` [Example 605], the “% inhibition … at 1 × 10^-8 M” value is reported as 68%.

Consider `CSCC[C@H](NC(=O)c1ccc(CO[C@H](CSC(C)(C)C)Cc2ccccc2)cc1-c1ccccc1C)C(=O)O` [Example 994], for which the “% inhibition … at 1 × 10^-8 M” value was found to be 83%.

As for `CSCC[C@H](NC(=O)c1ccc(COCc2cnc(-c3ccc(Cl)cc3)s2)cc1-c1ccccc1C)C(=O)[O-].[Li+]` [Example 901], the “% inhibition … at 1 × 10^-8 M” value is 84%.

Take `CSCC[C@H](NC(=O)c1ccc(COCc2ccc(-c3ccc(Cl)cc3)o2)cc1-c1ccccc1C)C(=O)NS(=O)(=O)c1ccccc1` [Example 819]: the “% inhibition … at 1 × 10^-8 M” value is recorded as 76%.

For `CCCCN(CCc1ccccc1)Cc1ccc(C(=O)N[C@@H](CCSC)C(=O)O)c(-c2ccccc2C)c1` [Example 928], the “% inhibition … at 1 × 10^-8 M” value was determined as 84%.

The experiment is the same for the next values; noted with them: read-out: % inhibition at 0.01 μM (**); Table 6, ** = 0.01 μM (footnote); title prints 0.01 mM.
On to `CSCC[C@H](NC(=O)c1ccc(Cc2nnnn2CC2CCCCC2)cc1-c1ccccc1C)C(=O)O` [Example 1100, N-[4-(1-cyclohexylmethyltetrazol-5-ylmethyl)-2-(2-methylphenyl)benzoyl]methionine], for which the inhibition at 0.01 µM turned out to be 82%.

The experiment is the same for the next values; noted with them: read-out: % inhibition at 0.1 μM (*); Table 6, * = 0.1 μM (footnote); title prints 0.1 mM.
Regarding `CCSCC(CCC1CCCCC1)Cc1ccc(C(=O)N[C@@H](CCSC)C(=O)O)c(-c2ccccc2C)c1` (stereo partly shown) [Example 1300, N-[4-(2-(2-Cyclohexylethyl)-1-ethylthioprop-3-yl)-2-(2-methylphenyl)benzoyl]methionine Lithium Salt], the inhibition at 0.1 µM was 97%.

Turning to `CSCC[C@H](NC(=O)c1ccc(CN2CCC[C@H]2COc2cc(F)cc(F)c2)cc1-c1ccccc1C)C(=O)O` [Example 1115, N-[4-(2(S)-(3,5-difluorolphenoxy)methylpyffolidin-1-ylmethyl)-2-(2-methylphenyl)benzoyl]methionine], the inhibition at 0.1 µM was determined as 94%.

The experiment is the same for the next values; noted with them: read-out: % inhibition of farnesyltransferase at 1 × 10^-6 M; 1 × 10^-6 M (Table 2).
On to `Cc1ccccc1-c1cc(CN(C2CC2)C(C)(C)CC2CCCCC2)ccc1C(=O)N[C@@H](CCS(C)(=O)=O)C(=O)O` [Example 320], for which the inhibition at 1 µM turned out to be 93%.

Consider `CSCC[C@H](NC(=O)c1ccc(N2CC(=O)NNC2=O)cc1-c1ccccc1)C(=O)O` [Example 224], for which the inhibition at 1 µM was determined as 41%.

Turning to `Cc1ccccc1-c1cc(CN(C(C)C)C(C)(C)Cc2ccccc2)ccc1C(=O)N[C@@H](CCS(C)(=O)=O)C(=O)O` [Example 321], the inhibition at 1 µM stood at 90%.

On to `CSCC[C@H](NC(=O)c1ccc(S(=O)(=O)NCCCn2ccnc2)cc1-c1ccccc1C)C(=O)O` [Example 777, lithium salt], for which the inhibition at 1 µM came to 83%.

Turning to `CSCC[C@H](NC(=O)c1ccc(CN2CCC(O)C2)cc1-c1ccccc1)C(=O)O` (stereo partly shown) [Example 291], the inhibition at 1 µM amounted to 23%.

For the molecule `CSCC[C@H](NC(=O)c1ccc(CCc2ccccc2-c2ccccc2)cc1-c1ccccc1C)C(=O)O` [Example 452, N-[4-(2-(2-phenylphenyl)ethyl)-2-(2-methylphenyl)benzoyl]methionine lithium salt], the inhibition at 1 µM was 96%.

Turning to `CSCC[C@H](NC(=O)c1ccc(C=CCCCc2ccccc2)cc1-c1ccccc1C)C(=O)O` [Example 480, N-[4-(5-phenylpent-1-enyl)-2-(2-methylphenyl)benzoyl]methionine], the inhibition at 1 µM is 87%.

As to `Cc1ccccc1-c1cc(CN(C2CC2)C2(Cc3ccccc3)CCC2)ccc1C(=O)N[C@@H](CCS(C)(=O)=O)C(=O)O` [Example 333], the inhibition at 1 µM came to 99%.

With `Cc1ccccc1-c1cc(CN(C2CC2)C2(Cc3ccccc3)CCCC2)ccc1C(=O)N[C@@H](CCS(C)(=O)=O)C(=O)O` [Example 345], the inhibition at 1 µM was found to be 91%.

On to `CSCC[C@H](NC(=O)c1ccc(CCc2cnc(Oc3ccccc3)cn2)cc1-c1ccccc1C)C(=O)O` [Example 813, lithium salt], for which the inhibition at 1 µM was found to be 95%.

The same experiment, now with this note: read-out: % inhibition of farnesyltransferase at 1 × 10^-7 M; 1 × 10^-7 M (Table 3).
`CSCC[C@H](NC(=O)c1ccc(CCc2ccc(Oc3ccccc3)cc2)cc1-c1ccccc1C)C(=O)O` [Example 462, N-[4-(2-(4-phenoxyphenyl)ethyl)-2-(2-methylphenyl)benzoyl]methionine lithium salt]: the inhibition at 0.1 µM is 91%.

Staying with this experiment, now noted: read-out: % inhibition of farnesyltransferase at 1 × 10^-8 M; 1 × 10^-8 M (Table 4).
As for `CSCC[C@H](NC(=O)c1ccc(/C=C/c2ccc(Oc3cccc(Cl)c3)cc2)cc1-c1ccccc1C)C(=O)O` [Example 858, N-[4-(2-(4-(3-chlorophenoxy)phenyl)ethen-1-yl)-2-(2-methylphenyl)benzoyl]methionine], the inhibition at 0.01 µM is 60%.
